Structures are written as SMILES. “And” between values parts separate entries of the source, which are not always exact repeats. Identical values can stand only once.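 Step 1: Grow cells in 96-well plates. Step 2: Expose to compound for 48 hours at 5 concentrations. Step 3: Interpolate endpoints linearly; if unreached, use highest concentration. Abbreviation: GI50, concentration required for 50% inhibition of growth. TGI: concentration producing complete growth inhibition.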

Common to all, as to assay: NCI anticancer screen, dose series, 48 h
Experiment [1] concerns SK-MEL-2 melanoma.
For experiment [2], the system named is NCI-H522 lung.
For experiment [3], the system named is HCT-15 colon.
Experiment [4] deals with SNB-75 CNS.
The test system of experiment [5] is KM12 colon.
Experiment [6] relates to UO-31 renal.
Experiment [7] deals with IGROV1 ovarian.
Experiment [8] relates to OVCAR-5 ovarian.
Experiment [9] deals with SN12C renal.
In experiment [10] the test system is HOP-92 NSCLC.

Regarding `COc1ccc(-c2nsc3c2NC(=O)CC3c2cccc(F)c2)cc1` (stereo unspecified), the GI50 is 3.3 µM in [1]; 3.39 µM in experiment [2]; 2.41 µM in [3]; 4.78 µM in experiment [4]; 2.48 µM in experiment [5]; > 100 µM in experiment [6]. The GI50 was 13.8 µM in [7], 7.86 µM in experiment [8], 5.2 µM in experiment [9] and 3.57 µM in experiment [10]. In addition, the TGI is 9.19 µM in experiment [1]; > 100 µM in [2]; > 100 µM in experiment [3]; 86.2 µM in [4]; > 100 µM in experiment [5]; > 100 µM in [6]. Further, the TGI is > 100 µM in experiment [7], > 100 µM in [8], > 100 µM in experiment [9] and 40.6 µM in [10].

Take `CN(CO)c1nc(N(C)CO)nc(N(C)CO)n1`: the GI50 in experiment [1] was 15.5 µM and 5.47 µM; in experiment [3] it was 25.8 µM; in [4] it was 16.4 µM; in experiment [6] it was 27.6 µM; in experiment [7], 16.1 µM; in [9], 27.6 µM and 19.5 µM. The GI50 in experiment [10] was 29.9 µM and 27.3 µM. The TGI in [1] is 32.1 µM and 11.2 µM; in experiment [2] it was 43.9 µM and 53.7 µM; in [3] it was 65.5 µM and 37.1 µM; in experiment [4] it was 53.3 µM and 32 µM; in experiment [5] it was 47.7 µM and 31.8 µM; in experiment [6], 50.3 µM and 56.2 µM. For the same compound, the TGI was 67.1 µM and 79.1 µM in experiment [7]; 63 µM and > 73.8 µM in experiment [8]; 70.5 µM and 57.8 µM in [9]; 64.9 µM and 64.1 µM in experiment [10].

For `COc1ccccc1/C=C1\CCC(CN2CCOCC2)C1=O` (stereo unspecified), the TGI in [1] was determined as 32.2 µM; in [2] it was 3.8 µM; in [3] it was 12.3 µM; in experiment [4] it was 46.3 µM; in experiment [5] it was 14.5 µM; in experiment [6], 31.4 µM. For the same compound, the TGI in experiment [7] was found to be 29.3 µM; in experiment [8], 33.7 µM; in experiment [9], 16.2 µM; in [10], 40.2 µM.

`O=C(Nc1cccc(-n2ccc3c(NC(=O)c4ccccc4)nccc32)c1)c1ccc(Cl)c(Cl)c1`: the GI50 in [1] is 1.12 µM; in experiment [2], 0.0786 µM; in experiment [3] it was 0.0879 µM; in experiment [4], 0.147 µM; in [5], 0.0554 µM; in experiment [6], 0.573 µM. For the same compound, the GI50 was 0.25 µM in [7], 0.476 µM in experiment [8], 0.38 µM in experiment [9] and 0.13 µM in experiment [10]. Besides, the TGI came out at 2.79 µM in experiment [1]; 1.22 µM in experiment [2]; 1.31 µM in [3]; 1.22 µM in [4]; 0.942 µM in experiment [5]; 2.18 µM in experiment [6]. For the same compound, the TGI in [7] amounted to 1.9 µM; in experiment [8], 1.71 µM; in experiment [9] it was 1.78 µM; in [10], 2.12 µM.

Take `COc1ccccc1-c1ccc2c(N)c(C(=O)c3ccc4c(c3)OCO4)sc2n1`: the GI50 in experiment [1] was 3.38 µM; in experiment [2], 4.32 µM; in [3], 4.08 µM; in experiment [4], 3.27 µM; in experiment [5], 4.46 µM; in experiment [6] it was 4.12 µM. Also, the GI50 in [7] was 7.93 µM; in experiment [8] it was 11.2 µM; in experiment [9], 6.14 µM; in [10], 2.99 µM. The TGI in experiment [1] was determined as 10.9 µM; in [2], 19.7 µM; in experiment [3] it was 53.6 µM; in experiment [4] it was 15.6 µM; in [5] it was 23.3 µM; in experiment [6], 16.7 µM. The TGI was determined as 25.5 µM in [7], 29.5 µM in experiment [8], 24.5 µM in experiment [9] and 13 µM in [10].

Regarding `CC(=O)OC(C)(C)C[N+](=O)[O-]`, the TGI in [1], in experiment [2], in [3], in experiment [4], in experiment [5] and in experiment [6] was > 100 µM in each case. Moreover, the TGI in experiment [7], in experiment [8], in [9] and in experiment [10] was > 100 µM in each case.

For the compound `c1ccc(N2CCN(CCCN3CCc4c([nH]c5ccccc45)C3c3cccnc3)CC2)cc1` (stereo unspecified), the TGI in experiment [1], in experiment [2], in experiment [3], in experiment [4], in experiment [5] and in experiment [6] was > 100 µM throughout. Further, the TGI is > 100 µM in experiment [7], > 100 µM in [8], 99.2 µM in [9] and > 100 µM in experiment [10].

Regarding `Cl.[O-]c1cccc2cccnc12.[O-]c1cccc2cccnc12.[O-]c1cccc2cccnc12.[O-]c1cccc2cccnc12.[Ti+4]`, the GI50 in experiment [1] is 3.32 µM; in experiment [2], 0.12 µM; in experiment [3], 0.354 µM; in experiment [4], 9.55 µM; in experiment [5] it was 2.28 µM; in experiment [6], 5.59 µM. Besides, the GI50 in experiment [8] was 2.71 µM; in experiment [9] it was 2.74 µM; in experiment [10], 15.7 µM. The TGI in experiment [1] is 26.1 µM; in experiment [2] it was 0.256 µM; in [3], 7.06 µM; in [4], > 100 µM; in [5], 8.04 µM; in experiment [6] it was > 100 µM. Besides, the TGI in [7] was 2.92 µM; in [8] it was 19.5 µM; in [9], > 91.1 µM; in [10], > 71.7 µM.

`C=C1CCCC2OC(OC)CCC12` (stereo unspecified): the TGI in [1], in experiment [2], in [3], in [4], in experiment [5] and in experiment [6] was > 100 µM throughout. Moreover, the TGI in [7], in experiment [8], in experiment [9] and in experiment [10] was > 100 µM each time.

As for `N#Cc1ccc(O)c(C2=NCC(c3ccc(-c4ccccc4)cc3)O2)c1` (stereo unspecified), the GI50 in experiment [1] is 0.746 µM; in experiment [2] it was 0.4 µM; in experiment [3], 0.0896 µM; in [4], 0.625 µM; in [5], 0.462 µM; in [6], 0.406 µM. The GI50 in experiment [7] is 0.478 µM; in experiment [8], 0.941 µM; in experiment [9], 0.606 µM; in experiment [10], 0.421 µM. Moreover, the TGI in experiment [1] stood at 15.8 µM; in experiment [2] it was 10.6 µM; in [3], 20.4 µM; in [4], 14.4 µM; in experiment [5] it was 28.7 µM; in [6], 4.13 µM. The TGI in experiment [7] was 14.3 µM; in [8], 28.9 µM; in experiment [9], 16.9 µM; in experiment [10], 22.5 µM.

In the case of `Cc1cnc(-c2ccc(-c3ccc(NC(=O)Nc4cccc(C(F)(F)F)c4)cc3F)c3c2C(=O)NC3)[nH]1`, the GI50 in experiment [1] is 14.9 µM; in experiment [2], 15.4 µM; in experiment [3], 6.19 µM; in [4] it was 1.29 µM; in experiment [5], < 0.01 µM; in experiment [6] it was 3 µM. The GI50 in [7] was 1.97 µM; in [8], 28.4 µM; in experiment [9], 0.304 µM; in experiment [10] it was 0.438 µM. For the same compound, the TGI was 36.8 µM in experiment [1]; 42.7 µM in experiment [2]; 33.6 µM in [3]; 25.5 µM in experiment [4]; 16.2 µM in experiment [5]; > 50.5 µM in [6]. The TGI in experiment [7] is 32.2 µM; in experiment [8], > 59.8 µM; in experiment [9], 35.3 µM; in experiment [10], 28.6 µM.

In the case of `CN1CCN(C(=O)[C@@]2(C)CC[C@]3(C)CC[C@]4(C)C(=CC[C@@H]5[C@@]6(C)CC[C@H](OC(=O)c7cccnc7)C(C)(C)[C@@H]6CC[C@]54C)[C@@H]3C2)CC1`, the GI50 in experiment [1] was 13.2 µM; in [2], 1.95 µM; in [3] it was 1.4 µM; in [4] it was 1.32 µM; in [5], 1.9 µM; in experiment [6], 1.43 µM. In addition, the GI50 in experiment [7] is 1.93 µM; in experiment [8], 1.69 µM; in [9] it was 1.56 µM; in [10], 1.38 µM. Besides, the TGI is 28.6 µM in [1]; 4.17 µM in [2]; 2.8 µM in experiment [3]; 2.63 µM in experiment [4]; 3.64 µM in experiment [5]; 2.86 µM in experiment [6]. Also, the TGI in experiment [7] came to 3.89 µM; in experiment [8], 3.42 µM; in experiment [9], 3.15 µM; in experiment [10], 3.2 µM.

Regarding `O=C(CC1(O)C(=O)Nc2c(Cl)cc(Cl)cc21)c1ccc([N+](=O)[O-])cc1` (stereo unspecified), the TGI was > 100 µM in [1]; 46.4 µM in experiment [2]; > 100 µM in experiment [3]; > 87.6 µM in [4]; > 100 µM in experiment [5]; 35.1 µM in experiment [6]. The TGI in experiment [7] was > 90.6 µM; in experiment [8], > 100 µM; in [9], > 68 µM; in experiment [10], 75.5 µM.

For the origin of these results see PubChem BioAssay (NCI).
